Experimental data as given in PMC5651349 (Alzheimer's & Dementia : Translational Research & Clinical …, 2016).

How the values were obtained:
[1] = Plasma pharmacokinetics following single dose; format: in vivo; conditions: both, human, oral
[2] = CSF pharmacokinetics following multiple dosing; conditions: both, human, in vivo
[3] = Adverse events, single ascending dose
[4] = Adverse events, multiple ascending dose; conditions: MAD
[5] = Plasma and urine pharmacokinetics following multiple dosing; conditions: for CL renal: Mean renal clearance
[6] = CSF pharmacokinetics following single dose

Tmax [1]: 0.75 to 2 h | half-life [1]: 9 to 16.1 h | Tmax [2]: ~4 h | half-life [2]: 11.7 to 14.4 h | Tmax ([5]; both, human, in vivo): 2 to 4 h | half-life ([5]; both, human, in vivo): 14.4 to 18.5 h | CL renal ([5]; human, in vivo, day 1 (single dose)): 1.85 mL/min | CL renal ([5]; human, in vivo, day 14): 1.92 mL/min | Steady state concentrations reached ([5]; plasma, multiple dosing, all cohorts): ≤ 5 days | Single-dose CSF concentrations ([6]; CSF, 1-mg and 3-mg dose level, elderly): generally below the LOQ | Maximal mean concentrations in CSF ([6]; day 1, single dose, range across 10–150 mg): 2.94 to 22.7 ng/mL
SMILES: C[C@@]1(c2cc(NC(=O)c3ccc(C#N)cn3)ccc2F)C=CSC(N)=N1 [JNJ-54861911]
Serious AEs (SAEs) ([3]; SAD and MAD studies): no serious AEs | Back pain, participants with AE ([3]; SAD, all JNJ-54861911 participants (10/42)): 23.8% | Headache, participants with AE ([3]; SAD, all JNJ-54861911 participants (16/42)): 38.1% | Tolerability ([3]; single and multiple oral doses between 1 and 150 mg (SAD and MAD studies), healthy participants): well-tolerated | Back pain, participants with AE ([4]; all JNJ-54861911 participants (11/52)): 21.2% | Headache, participants with AE ([4]; all JNJ-54861911 participants (13/52)): 25.0%
